Data: patent publication US20150181873A1, “HERBICIDE-RESISTANT SUNFLOWER PLANTS, POLYNUCLEOTIDES ENCODING HERBICIDE=RESISTANT ACETO HYDROXY ACID SYNTHASE LARGE SUBUNIT PROTEINS, AND METHODS OF USE” (NIDERA S.A., priority 2013, published 2015)

Experiments:
Format in all cases: in vivo, Helianthus annuus
[1] = system: sunflower hybrid TH11 (A122T); experiment: Greenhouse imazapir dose response, TH11; details: 14 DAT
Procedure: (§1) A greenhouse study was conducted to quantify and contrast the imazapir sensivity of the mutants A122T and A205V in different genetic backgrounds at the whole plant level in sunflower. Seeds of the different sunflower lines that were used in this study were obtained under field conditions.
(§2) Seeds were sown in Petri dishes and, after germination, plantlets were transplanted to pots of 10 cm of diameter in a potting media consisting of equal parts of vermiculite, soil and sand. Plants were grown in a greenhouse under natural light conditions supplemented with 400 W sodium halide lamps to provide a 16 hrs daylength. Day/night temperatures were 25 and 20° C., respectively. At the V2 stage 10 plants of each genotype were randomly assigned to each treatment consisting of […] imazapir doses (0, 40, 80, 160, 240, 320, 400 and 480 g ai/ha), and a zero-time biomass determination. Experiment was arranged as a randomized block design with a full factorial (sunflower line×treatment) arrangement of treatments and 10 replications.
(§3) On the day of herbicide application ten plants of each genotype were cut at the cotyledonal node and dried at 60° C. for 48 hrs zero-time for dried weight determination. […] Height was determined as the distance between the cotyledonal node and the apex of each plant. For root biomass determination, each plant was taken from the pot and the potting media was washed out from the roots. Above ground biomass data from each line were converted to biomass accumulation after application by subtracting the appropriate average zero-time biomass from each sample. Dry biomass data were converted to percentages of the untreated control plants within each line to allow direct comparisons between groups.

[2] = system: Clearfield sunflower variety A; experiment: Greenhouse spray injury rating, Clearfield variety A; details: imazapyr 240 gm ai/ha, scale 0-9
From the text: Sunflower lines S4897, Clearfield® sunflower varieties A, B, C and a conventional non-Clearfield variety were sprayed with three rates of imazamox (Raptor™), 100, 200 and 300 gm ai/ha plus 0.5% Sun It II and two rates of imazapyr (Arsenal™) 160 and 360 gm ai/ha plus 0.5% Sun It II when the plants were at the two to three leaf stage. Ratings were taken at 14 days after application (DAT) for injury. Injury was rated on a scale from 0 to 9 where 0=no injury to 9=dead plant. Twelve plants were sprayed per herbicide/rate treatment. Statistical analysis was conducted with STATGRAPHICS Plus 5.0 by using ANOVA and LSD procedures.
After plants were sprayed, it was realized that a height difference between S4897 and other sunflower varieties would have impacted the actual herbicide dose that was delivered. The spray boom height had been calibrated against S4897 and since the other varieties were taller and closer to the boom they would have received a greater dose of herbicide. Rates were recalibrated for the other varieties to determine the approximate dose they would have received. Assessments were made as presented in Table 2 since it was not possible to make a direct rate comparison due to the effect of the height. For example injury scores were compare for S4897 treated imazamox rate 100 gm ai/ha to the other varieties treated at 75 gm ai/ha. The treatment dose of 300 gm ai/ha for line S4897 was equivalent to the treatment of 200 gm ai/ha for the other varieties, which […].

[3] = system: sunflower restorer line TH12 (A122T); experiment: Greenhouse imazapir dose response, TH12; details: 14 DAT
Procedure: as §1, §2, §3

Compound: CC(C)C1(C)N=C(c2ncccc2C(=O)O)NC1=O (stereo not drawn) [Imazapyr, imazapyr]
- Phytotoxicity Index ([1]; 0.5x (40 g ai/ha)): 0.4
- biomass accumulation, % of untreated ([1]; 0.5x (40 g ai/ha)): 96.6%
- plant height, % of untreated ([1]; 0.5x (40 g ai/ha)): 100.4%
- root dry weight, % of untreated ([1]; 0.5x (40 g ai/ha)): 100%
- Phytotoxicity Index ([1]; 1x (80 g ai/ha)): 0.4
- biomass accumulation, % of untreated ([1]; 1x (80 g ai/ha)): 93.9%
- plant height, % of untreated ([1]; 1x (80 g ai/ha)): 99.9%
- root dry weight, % of untreated ([1]; 1x (80 g ai/ha)): 99.0%
- Phytotoxicity Index ([1]; 2x (160 g ai/ha)): 0.4
- biomass accumulation, % of untreated ([1]; 2x (160 g ai/ha)): 81.6%
- plant height, % of untreated ([1]; 2x (160 g ai/ha)): 92.0%
- root dry weight, % of untreated ([1]; 2x (160 g ai/ha)): 86.1%
- Phytotoxicity Index ([1]; 3x (240 g ai/ha)): 0.5
- biomass accumulation, % of untreated ([1]; 3x (240 g ai/ha)): 75.8%
- plant height, % of untreated ([1]; 3x (240 g ai/ha)): 90.5%
- root dry weight, % of untreated ([1]; 3x (240 g ai/ha)): 81.5%
- Phytotoxicity Index ([1]; 4x (320 g ai/ha)): 1.0
- biomass accumulation, % of untreated ([1]; 4x (320 g ai/ha)): 75.0%
- plant height, % of untreated ([1]; 4x (320 g ai/ha)): 90.8%
- root dry weight, % of untreated ([1]; 4x (320 g ai/ha)): 72.6%
- Phytotoxicity Index ([1]; 5x (400 g ai/ha)): 2.0
- biomass accumulation, % of untreated ([1]; 5x (400 g ai/ha)): 60.1%
- plant height, % of untreated ([1]; 5x (400 g ai/ha)): 84.4%
- root dry weight, % of untreated ([1]; 5x (400 g ai/ha)): 68.9%
- Phytotoxicity Index ([1]; 6x (480 g ai/ha)): 2.5
- biomass accumulation, % of untreated ([1]; 6x (480 g ai/ha)): 59.6%
- plant height, % of untreated ([1]; 6x (480 g ai/ha)): 84.4%
- root dry weight, % of untreated ([1]; 6x (480 g ai/ha)): 45.3%
- Injury at 14 DAT [2]: 5.0 c
- Phytotoxicity Index ([3]; 0.5x (40 g ai/ha)): 0.0
- biomass accumulation, % of untreated ([3]; 0.5x (40 g ai/ha)): 100.0%
- plant height, % of untreated ([3]; 0.5x (40 g ai/ha)): 100.0%
- root dry weight, % of untreated ([3]; 0.5x (40 g ai/ha)): 99.4%
- Phytotoxicity Index ([3]; 1x (80 g ai/ha)): 0.0
- biomass accumulation, % of untreated ([3]; 1x (80 g ai/ha)): 99.1%
- plant height, % of untreated ([3]; 1x (80 g ai/ha)): 100.0%
- root dry weight, % of untreated ([3]; 1x (80 g ai/ha)): 100%
- Phytotoxicity Index ([3]; 2x (160 g ai/ha)): 0.0
- biomass accumulation, % of untreated ([3]; 2x (160 g ai/ha)): 97.0%
- plant height, % of untreated ([3]; 2x (160 g ai/ha)): 101.8%
- root dry weight, % of untreated ([3]; 2x (160 g ai/ha)): 100%
- Phytotoxicity Index ([3]; 3x (240 g ai/ha)): 0.0
- biomass accumulation, % of untreated ([3]; 3x (240 g ai/ha)): 96.1%
- plant height, % of untreated ([3]; 3x (240 g ai/ha)): 97.0%
- root dry weight, % of untreated ([3]; 3x (240 g ai/ha)): 100.0%
- Phytotoxicity Index ([3]; 4x (320 g ai/ha)): 0.0
- biomass accumulation, % of untreated ([3]; 4x (320 g ai/ha)): 84.3%
- plant height, % of untreated ([3]; 4x (320 g ai/ha)): 92.1%
- root dry weight, % of untreated ([3]; 4x (320 g ai/ha)): 74.5%
- Phytotoxicity Index ([3]; 5x (400 g ai/ha)): 0.0
- biomass accumulation, % of untreated ([3]; 5x (400 g ai/ha)): 77.5%
- plant height, % of untreated ([3]; 5x (400 g ai/ha)): 84.8%
- root dry weight, % of untreated ([3]; 5x (400 g ai/ha)): 65.0%
- Phytotoxicity Index ([3]; 6x (480 g ai/ha)): 0.5
- biomass accumulation, % of untreated ([3]; 6x (480 g ai/ha)): 70.7%
- plant height, % of untreated ([3]; 6x (480 g ai/ha)): 79.8%
- root dry weight, % of untreated ([3]; 6x (480 g ai/ha)): 57.8%
